Measurements: ChEMBL document CHEMBL1201862, “PubChem BioAssay data set” (2004)
Calls of active or inactive are those of the source.

How the values were obtained:
[1] = molecular target: 1-phosphatidylinositol 4,5-bisphosphate phosphodiesterase beta-3 (Homo sapiens, UniProt Q01970); assay: Fluorescence-based biochemical high throughput dose response assay to identify inhibitors of phospholipase C isozymes (PLC-B3).
[2] = molecular target: Luciferin 4-monooxygenase (Photinus pyralis, UniProt P08659); assay: firefly luciferase enzyme inhibitors, dose response, biochemical, luminescence (AID 1891)
[3] = molecular target: 1-phosphatidylinositol 4,5-bisphosphate phosphodiesterase gamma-1 (Homo sapiens, UniProt P19174); assay: Counterscreen for inhibitors of phospholipase C isozymes (PLC-B3): Fluorescence-based biochemical high throughput dose response assay to identify inhibitors of phospholipase C isozymes (PLC-gamma1).
[4] = Luminescence Cell-Based Dose Confirmation HTS to Identify Inhibitors of Platelet Dense Granule Release. [Related pubchem assays: 1663 (Primary HTS), 1678 (Summary of Project)]; assay type: functional
[5] = molecular target: T1, Sentrin-specific protease 8 (Homo sapiens, UniProt Q96LD8); assay type: functional;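 further: luminescence read-out of SENP8 inhibition, dose-response confirmation following an ultra-high-throughput screen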
T1 sequence (Q96LD8 whole entry): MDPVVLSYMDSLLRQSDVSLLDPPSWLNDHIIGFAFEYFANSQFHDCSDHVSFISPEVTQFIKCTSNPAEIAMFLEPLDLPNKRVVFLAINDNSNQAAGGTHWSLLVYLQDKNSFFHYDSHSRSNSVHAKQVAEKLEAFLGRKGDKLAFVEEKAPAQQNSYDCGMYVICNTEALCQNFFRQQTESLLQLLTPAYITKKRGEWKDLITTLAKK

[6] = molecular target: T2, Oxysterols receptor LXR-beta (Homo sapiens, UniProt P55055); assay type: functional, cell-based;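 further: agonist activity at LXR measured by a cell-based luminescence readout across a dose range, run as a counterscreen for daf-12 agonists; potency for activation of Gal4-LXR reporter so compounds are agonists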
T2 sequence (P55055 whole entry): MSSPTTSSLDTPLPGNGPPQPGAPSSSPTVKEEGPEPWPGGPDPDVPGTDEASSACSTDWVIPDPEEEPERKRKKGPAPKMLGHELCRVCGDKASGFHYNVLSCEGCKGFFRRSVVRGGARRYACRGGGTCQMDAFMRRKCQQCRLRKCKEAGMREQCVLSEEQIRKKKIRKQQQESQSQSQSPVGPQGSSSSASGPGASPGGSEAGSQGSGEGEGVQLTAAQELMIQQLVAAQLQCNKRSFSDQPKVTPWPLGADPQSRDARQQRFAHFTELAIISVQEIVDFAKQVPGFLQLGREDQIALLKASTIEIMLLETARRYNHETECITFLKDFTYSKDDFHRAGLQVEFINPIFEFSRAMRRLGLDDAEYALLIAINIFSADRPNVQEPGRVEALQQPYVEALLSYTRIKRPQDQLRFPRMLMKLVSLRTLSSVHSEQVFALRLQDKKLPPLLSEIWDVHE

[7] = Luminescence-based cell-based high throughput dose response assay to identify activators of the DAF-12 from the parasite S. stercoralis (ssDAF-12).; assay type: functional
[8] = molecular target: T2, Oxysterols receptor LXR-beta; assay: LXR agonists, Gal4 luciferase reporter, dose response, counter-screen for ssDAF-12 agonist project, cell-based, luminescence, HEK293, S. stercoralis campaign (AID 720737); assay type: functional; conditions: read-out: IC50 (the source's name)
[9] = molecular target: T3, Sentrin-specific protease 7 (Homo sapiens, UniProt Q9BQF6); assay type: functional;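 further: Luminescence-based dose-response confirmation of ultra-high-throughput screening hits, measuring inhibition of SENP7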
T3 sequence (Q9BQF6 whole entry): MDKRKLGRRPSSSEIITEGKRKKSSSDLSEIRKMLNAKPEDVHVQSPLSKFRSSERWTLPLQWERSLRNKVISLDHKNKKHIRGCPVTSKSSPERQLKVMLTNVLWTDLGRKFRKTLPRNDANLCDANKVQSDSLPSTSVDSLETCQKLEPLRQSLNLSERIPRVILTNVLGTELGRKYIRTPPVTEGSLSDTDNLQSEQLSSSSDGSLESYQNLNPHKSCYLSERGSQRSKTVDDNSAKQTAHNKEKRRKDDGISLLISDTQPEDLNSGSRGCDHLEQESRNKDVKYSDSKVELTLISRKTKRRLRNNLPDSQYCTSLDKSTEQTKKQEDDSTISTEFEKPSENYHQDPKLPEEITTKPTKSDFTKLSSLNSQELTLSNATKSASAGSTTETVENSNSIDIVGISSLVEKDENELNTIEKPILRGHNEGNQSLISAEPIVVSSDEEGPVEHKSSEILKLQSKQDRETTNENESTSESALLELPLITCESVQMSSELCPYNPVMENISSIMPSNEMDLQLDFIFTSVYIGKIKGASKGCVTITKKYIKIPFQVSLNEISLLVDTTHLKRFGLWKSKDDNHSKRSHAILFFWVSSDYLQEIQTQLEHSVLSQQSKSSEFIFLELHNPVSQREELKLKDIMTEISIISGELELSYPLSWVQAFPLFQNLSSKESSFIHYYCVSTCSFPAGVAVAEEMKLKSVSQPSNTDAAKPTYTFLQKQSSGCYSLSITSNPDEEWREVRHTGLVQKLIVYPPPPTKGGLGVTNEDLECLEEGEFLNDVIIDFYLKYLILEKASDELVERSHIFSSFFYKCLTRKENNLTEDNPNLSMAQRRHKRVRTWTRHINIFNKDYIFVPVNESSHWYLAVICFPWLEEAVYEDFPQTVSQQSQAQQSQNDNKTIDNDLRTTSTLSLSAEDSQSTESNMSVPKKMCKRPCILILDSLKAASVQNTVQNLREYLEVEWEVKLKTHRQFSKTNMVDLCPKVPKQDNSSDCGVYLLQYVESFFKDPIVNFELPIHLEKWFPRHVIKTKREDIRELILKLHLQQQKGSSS

Caspase-3 = molecular target: T4, Caspase-3 (Homo sapiens, UniProt P42574); assay type: functional;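 further: Dose-response selectivity test against caspase-3 for candidate inhibitors of sentrin-specific proteases (SENPs)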
T4 sequence (P42574 whole entry): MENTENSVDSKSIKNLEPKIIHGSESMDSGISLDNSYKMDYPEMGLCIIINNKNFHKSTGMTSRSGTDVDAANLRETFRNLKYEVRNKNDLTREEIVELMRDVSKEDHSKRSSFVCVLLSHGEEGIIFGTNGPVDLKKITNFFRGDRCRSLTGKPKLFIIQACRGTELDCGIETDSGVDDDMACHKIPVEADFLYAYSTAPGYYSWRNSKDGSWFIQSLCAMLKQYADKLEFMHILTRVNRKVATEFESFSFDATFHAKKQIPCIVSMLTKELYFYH

[10] = molecular target: T5, Sentrin-specific protease 6 (Homo sapiens, UniProt Q9GZR1); assay type: functional;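 further: Luminescence-based dose-response confirmatory assay of SENP6 inhibition, following up an ultra-high-throughput screen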
T5 sequence (Q9GZR1 whole entry): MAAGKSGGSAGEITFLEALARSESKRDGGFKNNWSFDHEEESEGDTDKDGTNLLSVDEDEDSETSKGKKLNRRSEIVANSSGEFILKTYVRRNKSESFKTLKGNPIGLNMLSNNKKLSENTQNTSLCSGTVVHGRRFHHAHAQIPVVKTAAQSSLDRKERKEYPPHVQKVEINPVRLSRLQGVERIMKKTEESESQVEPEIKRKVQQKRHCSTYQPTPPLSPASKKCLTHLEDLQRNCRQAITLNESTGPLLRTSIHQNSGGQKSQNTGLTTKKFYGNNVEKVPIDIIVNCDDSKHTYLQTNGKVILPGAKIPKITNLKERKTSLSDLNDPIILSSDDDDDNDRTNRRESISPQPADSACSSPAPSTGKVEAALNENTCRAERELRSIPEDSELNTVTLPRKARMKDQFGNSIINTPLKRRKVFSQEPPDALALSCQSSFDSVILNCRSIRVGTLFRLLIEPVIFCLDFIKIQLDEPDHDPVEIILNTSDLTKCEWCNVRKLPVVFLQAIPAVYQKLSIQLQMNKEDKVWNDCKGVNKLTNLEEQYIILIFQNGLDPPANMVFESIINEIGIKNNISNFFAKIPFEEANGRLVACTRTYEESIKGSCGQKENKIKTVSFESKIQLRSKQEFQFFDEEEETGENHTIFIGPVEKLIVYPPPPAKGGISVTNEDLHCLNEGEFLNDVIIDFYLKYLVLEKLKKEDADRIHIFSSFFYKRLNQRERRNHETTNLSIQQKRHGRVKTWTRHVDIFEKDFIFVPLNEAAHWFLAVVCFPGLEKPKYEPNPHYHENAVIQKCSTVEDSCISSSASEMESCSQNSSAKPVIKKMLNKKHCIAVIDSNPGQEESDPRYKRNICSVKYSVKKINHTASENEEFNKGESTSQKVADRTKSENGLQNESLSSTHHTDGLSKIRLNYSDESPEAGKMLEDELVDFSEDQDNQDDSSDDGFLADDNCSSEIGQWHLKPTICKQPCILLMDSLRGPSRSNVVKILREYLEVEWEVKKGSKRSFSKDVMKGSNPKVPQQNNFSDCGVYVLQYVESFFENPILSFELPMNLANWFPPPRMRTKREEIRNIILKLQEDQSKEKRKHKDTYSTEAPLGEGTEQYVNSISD

Kallikrein-7 = Kallikrein-7 (Homo sapiens, UniProt P49862); assay: Fluorescence Intensity-based biochemical primary high throughput dose response assay to identify activators of kallikrein-7 (K7) zymogen.
Vero = Vero cell cytotoxicity, cytotoxicity control for flavivirus capping enzyme inhibitors (AID 588742); assay type: functional; conditions: Chlorocebus sabaeus
[11] = Luminescence Cell-Based Dose Confirmation HTS to Identify Activators of 5'UTR Stem-Loop Driven Alpha-Synuclein mRNA Translation in H4 Neuroglioblastoma Cells. [Related pubchem assays: 1829 (Project Summary), 1814 (Primary HTS)]; assay type: functional
H4 = assay: Luminescence Cell-Based Dose Response HTS to Identify Activators of 5'UTR Stem-Loop Driven Prion Protein mRNA Translation in H4 Neuroglioblastoma Cells. [Related pubchem assays: 1829 (Project Summary), 1814 (Primary HTS)]; assay type: functional; conditions: Homo sapiens
[12] = Luminescence Cell-Based Dose Response HTS to Identify Activators of Luciferase Translation or Activity in H4 […] Cells. [Related pubchem assays: 1829 (Project Summary), 1814 (Primary HTS)]; assay type: functional
[13] = Artemis endonuclease inhibitor potency, dose response, biochemical, fluorescence intensity (AID 720701); assay type: functional;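 further: Artemis endonuclease enzyme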
[14] = inhibitors of non-replicating M. tuberculosis, dose response, luciferase, dry powder (AID 651620); assay type: functional; conditions: Mycobacterium tuberculosis
[15] = growth inhibition of replicating M. tuberculosis, dose response, counter-screen, dry powder, IC90 (AID 651617); assay type: functional; conditions: Mycobacterium tuberculosis
[16] = inhibitors of non-replicating M. tuberculosis, dose response, luciferase, dry powder (AID 651619); assay type: functional; conditions: Mycobacterium tuberculosis
[17] = HeLa cell cytotoxicity, dose response, cytotoxicity control, 24 h, plate reader, powder samples, set 3 (AID 651864); assay type: functional, cell-based
[18] = cytotoxicity in primary human melanocytes, dose response, cytotoxicity control, cell-based, plate reader, dry powder (AID 651920); assay type: functional
[19] = MITF Orthogonal Assay: SK-MEL-5 CTG Assay Measured in Cell-Based System Using Plate Reader - 2084-02_Inhibitor_Dose_DryPowder_Activity_Set7.; assay type: functional
[20] = A375 melanoma cell viability loss, dose response, counter-screen for MITF modulator project, CellTiter-Glo luminescence, dry powder, set 9 (AID 651591); assay type: functional, cell-based; conditions: A-375
[21] = TRPM1 promoter luciferase reporter signal decrease, dose response, MITF inhibitor project, cell-based, SK-MEL-5, dry powder, set 8 (AID 624430); assay type: functional
[22] = MITF Orthogonal Assay: MALME3 CTG Assay Measured in Cell-Based System Using Plate Reader - 2084-04_Inhibitor_Dose_DryPowder_Activity_Set6.; assay type: functional; conditions: MALME-3
[23] = SK-MEL-5 parental cell viability reduction, dose response, orthogonal assay for MITF inhibitor project, CellTiter-Glo luminescence, dry powder, set 8 (AID 651586); assay type: functional, cell-based
[24] = MALME3 melanoma cell viability reduction, dose response, orthogonal assay for MITF inhibitor project, CellTiter-Glo luminescence, dry powder, set 5 (AID 651584); assay type: functional, cell-based; conditions: MALME-3
[25] = MITF: Counter assay: A375 proliferation Measured in Cell-Based System Using Plate Reader - 2084-03_Inhibitor_Dose_DryPowder_Activity_Set8.; assay type: functional; conditions: A-375
[26] = TRPM1 promoter luciferase reporter signal decrease, dose response, MITF inhibitor project, cell-based, SK-MEL-5, dry powder, set 9 (AID 651588); assay type: functional
[27] = CEM21 cell cytotoxicity, dose response, cytotoxicity control, plate reader, dry powder (AID 687026); assay type: functional, cell-based
[28] = HIV Env cell-cell fusion inhibitors, dose response, HIV entry, plate reader, dry powder (AID 687023); assay type: functional, cell-based

Kallikrein-7, sequence (P49862 whole entry): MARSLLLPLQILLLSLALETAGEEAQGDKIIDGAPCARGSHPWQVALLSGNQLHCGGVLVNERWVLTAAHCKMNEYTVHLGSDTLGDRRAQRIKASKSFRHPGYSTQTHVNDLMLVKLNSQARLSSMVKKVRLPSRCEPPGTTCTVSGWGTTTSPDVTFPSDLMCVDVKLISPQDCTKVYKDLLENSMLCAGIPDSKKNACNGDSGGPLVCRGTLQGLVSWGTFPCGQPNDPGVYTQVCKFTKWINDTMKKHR
1-phosphatidylinositol 4,5-bisphosphate phosphodiesterase beta-3, sequence (Q01970 whole entry): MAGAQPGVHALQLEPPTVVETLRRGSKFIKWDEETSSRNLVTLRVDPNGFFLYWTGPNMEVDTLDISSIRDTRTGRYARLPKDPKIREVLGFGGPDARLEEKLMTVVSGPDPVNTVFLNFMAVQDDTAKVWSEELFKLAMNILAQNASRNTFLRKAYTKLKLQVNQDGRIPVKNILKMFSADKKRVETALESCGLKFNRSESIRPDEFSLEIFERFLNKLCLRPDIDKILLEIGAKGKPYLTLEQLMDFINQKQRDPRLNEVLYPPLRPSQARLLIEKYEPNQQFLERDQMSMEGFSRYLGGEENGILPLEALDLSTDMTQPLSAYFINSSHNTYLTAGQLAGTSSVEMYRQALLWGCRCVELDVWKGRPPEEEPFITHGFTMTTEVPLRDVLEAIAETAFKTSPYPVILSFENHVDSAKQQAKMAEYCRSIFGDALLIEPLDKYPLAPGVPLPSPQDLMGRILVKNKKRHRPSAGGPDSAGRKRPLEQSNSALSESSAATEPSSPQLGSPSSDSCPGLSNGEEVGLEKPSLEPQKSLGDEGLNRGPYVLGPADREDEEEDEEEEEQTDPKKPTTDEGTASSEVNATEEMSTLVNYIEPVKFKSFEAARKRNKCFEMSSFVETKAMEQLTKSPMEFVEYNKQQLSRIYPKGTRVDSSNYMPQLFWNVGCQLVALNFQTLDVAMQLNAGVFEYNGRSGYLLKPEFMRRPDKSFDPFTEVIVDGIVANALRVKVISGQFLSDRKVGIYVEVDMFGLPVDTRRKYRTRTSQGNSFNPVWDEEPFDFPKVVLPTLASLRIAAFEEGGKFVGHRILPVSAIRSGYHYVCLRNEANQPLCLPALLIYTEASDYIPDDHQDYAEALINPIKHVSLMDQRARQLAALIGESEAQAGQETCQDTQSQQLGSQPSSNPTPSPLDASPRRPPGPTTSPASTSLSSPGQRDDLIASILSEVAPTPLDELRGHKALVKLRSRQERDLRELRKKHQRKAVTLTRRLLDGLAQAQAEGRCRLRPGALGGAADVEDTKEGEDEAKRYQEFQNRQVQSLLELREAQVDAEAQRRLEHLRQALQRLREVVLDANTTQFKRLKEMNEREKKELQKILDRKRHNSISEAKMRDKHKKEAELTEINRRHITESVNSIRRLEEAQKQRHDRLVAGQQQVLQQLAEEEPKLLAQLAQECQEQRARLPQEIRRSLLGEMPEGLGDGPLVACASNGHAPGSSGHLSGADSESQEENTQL
1-phosphatidylinositol 4,5-bisphosphate phosphodiesterase gamma-1, sequence (P19174 whole entry): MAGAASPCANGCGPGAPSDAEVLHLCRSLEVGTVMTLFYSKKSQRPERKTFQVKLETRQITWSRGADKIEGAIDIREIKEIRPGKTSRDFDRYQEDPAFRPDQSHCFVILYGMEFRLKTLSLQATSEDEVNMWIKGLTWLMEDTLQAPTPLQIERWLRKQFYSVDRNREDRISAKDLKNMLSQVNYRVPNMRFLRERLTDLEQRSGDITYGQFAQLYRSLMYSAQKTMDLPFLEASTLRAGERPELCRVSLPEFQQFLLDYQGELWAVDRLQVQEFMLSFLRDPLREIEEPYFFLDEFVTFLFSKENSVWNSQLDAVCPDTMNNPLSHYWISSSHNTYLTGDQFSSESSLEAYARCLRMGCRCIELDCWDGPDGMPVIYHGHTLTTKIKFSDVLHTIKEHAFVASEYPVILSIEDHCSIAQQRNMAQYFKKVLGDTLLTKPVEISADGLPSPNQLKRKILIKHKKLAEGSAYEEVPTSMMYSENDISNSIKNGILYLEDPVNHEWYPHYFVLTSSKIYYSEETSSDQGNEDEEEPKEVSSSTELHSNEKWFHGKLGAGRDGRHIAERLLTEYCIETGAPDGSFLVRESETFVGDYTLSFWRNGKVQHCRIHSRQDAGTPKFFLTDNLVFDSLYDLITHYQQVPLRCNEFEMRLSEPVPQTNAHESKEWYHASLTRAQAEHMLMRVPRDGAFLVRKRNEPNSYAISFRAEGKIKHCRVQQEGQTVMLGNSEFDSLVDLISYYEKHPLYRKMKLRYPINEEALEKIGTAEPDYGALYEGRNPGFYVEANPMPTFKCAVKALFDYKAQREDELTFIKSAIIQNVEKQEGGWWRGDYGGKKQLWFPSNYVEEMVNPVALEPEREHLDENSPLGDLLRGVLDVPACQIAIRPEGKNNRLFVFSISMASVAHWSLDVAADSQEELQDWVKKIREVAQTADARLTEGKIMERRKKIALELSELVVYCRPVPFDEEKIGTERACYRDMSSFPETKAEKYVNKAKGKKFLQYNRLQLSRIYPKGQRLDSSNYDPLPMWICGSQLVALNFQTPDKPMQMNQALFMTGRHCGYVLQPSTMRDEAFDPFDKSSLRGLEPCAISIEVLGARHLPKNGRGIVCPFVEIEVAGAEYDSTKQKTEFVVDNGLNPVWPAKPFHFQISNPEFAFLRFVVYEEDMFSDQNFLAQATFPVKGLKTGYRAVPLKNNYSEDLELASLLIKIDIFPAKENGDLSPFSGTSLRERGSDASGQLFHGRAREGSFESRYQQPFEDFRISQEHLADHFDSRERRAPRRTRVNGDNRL
Luciferin 4-monooxygenase, sequence (P08659 whole entry): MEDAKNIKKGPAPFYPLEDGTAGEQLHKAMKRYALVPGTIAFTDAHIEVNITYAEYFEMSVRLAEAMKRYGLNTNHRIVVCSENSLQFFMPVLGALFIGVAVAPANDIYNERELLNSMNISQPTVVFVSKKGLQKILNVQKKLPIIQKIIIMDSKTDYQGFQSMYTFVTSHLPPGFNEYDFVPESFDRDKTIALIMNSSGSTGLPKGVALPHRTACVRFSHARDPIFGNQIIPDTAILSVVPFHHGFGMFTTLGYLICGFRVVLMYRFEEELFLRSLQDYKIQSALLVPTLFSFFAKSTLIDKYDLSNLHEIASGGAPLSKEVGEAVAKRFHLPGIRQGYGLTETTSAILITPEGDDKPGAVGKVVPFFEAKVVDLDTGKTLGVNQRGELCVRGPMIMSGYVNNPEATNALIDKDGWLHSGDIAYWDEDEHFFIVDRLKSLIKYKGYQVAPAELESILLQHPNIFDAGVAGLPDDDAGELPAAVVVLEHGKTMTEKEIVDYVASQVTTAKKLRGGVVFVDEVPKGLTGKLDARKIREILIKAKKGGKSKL

In the case of `Nc1ncnc2c1ncn2[C@@H]1O[C@H](COP(=O)(O)O)[C@@H](O)[C@H]1O`, the IC50 [1] is reported as > 122 µM (inactive), the EC50 [2] is reported as 1.48 µM (active) and the IC50 [3] is reported as 13.2 µM (inactive). For the same compound, the EC50 [4] was 1.13 µM (active).
For `Cc1csc(NC(=O)c2ccc3ccccc3n2)n1`, the IC50 [5] was 16.2 µM (active), the EC50 [6] was > 67.6 µM (inactive) and the IC50 [7] was > 67.6 µM (inactive). For the same compound, the EC50 [8] was > 67.6 µM (inactive), the IC50 [9] was 5.25 µM (active) and the IC50 (Caspase-3) was 6.96 µM (active). For the same compound, the IC50 [10] was 11 µM (active).
For `CC1(C)CC(=O)C2=C(C1)c1c(ccc3ccccc13)NC2c1ccc(OCC(=O)O)cc1` (configuration not stated), the EC50 (Kallikrein-7) was > 69.5 µM (inactive).
For `O=C(Nc1ccc2oc(-c3cccc4ccccc34)nc2c1)c1nc[nH]n1`, the CC50 (Vero) was > 40 µM (active), the EC50 [11] was 0.627 µM (active) and the EC50 (H4) was 5.42 µM (active). The EC50 [12] was 15.8 µM (active) and the IC50 [13] was 7.47 µM (active).
For `c1ccc(-c2nnc(SCc3ccncc3)o2)cc1`, the IC90 [14] was 31 µM (active), the IC90 [15] was 250 µM (active) and the IC90 [16] was 31 µM (active).
With `CCc1ccccc1NCc1ccc(N2CCCC2)cc1` the AC50 [17] was 149 µM (active).
With `O=C1C=C(Nc2ccc([N+](=O)[O-])c(C(F)(F)F)c2)C(=O)c2ccccc21` the AC50 [18] was 8.56 µM (active), the AC50 [19] was 1.06 µM (active) and the AC50 [20] was > 70 µM (inactive). For the same compound, the AC50 [21] was 5.19 µM (active), the AC50 [22] was 27.7 µM (active) and the AC50 [23] was 36.1 µM (active). The AC50 [24] was 27.7 µM (active), the AC50 [25] was > 70 µM (inactive) and the AC50 [26] was 15.3 µM (active).
For `Cc1noc(C)c1S(=O)(=O)Nc1cccc2c1O[C@@H](CN(C)Cc1ccc(C(F)(F)F)cc1)[C@@H](C)CN([C@H](C)CO)C2=O`, the AC50 [27] was > 70 µM (inactive) and the AC50 [28] was 18.6 µM (active).
